# Assay results from patent US10538564B2, “Peptides having osteoblast growth-promoting activity and use thereof” (PHARMA FOODS INTERNATIONAL CO., LTD., priority 2014, dated 2020).
# No end group written: not given here.
# What was measured:
# [1] = tested on: mature female rats (eight months old); assay: Bone formation-promoting effect in mature rats; assay type: in vivo, rat; details: No. 1 oral 1, 10 or 100 mg/kg·day, alendronate 300 μg/kg subcutaneous, 20 weeks, vs control group
# Method: Synthetic peptide No. 1 was administered to mature female rats (eight months old, ten rats in each group) by oral gavage using a gastric tube once a day for 20 weeks. The dose of the synthetic peptide was 1, 10 or 100 mg/kg·day.
# [2] = tested on: mouse osteoblast-like cell line MC3T3-E1 Subclone-4; assay: Osteoblast growth-promoting activity (cell counting method); assay type: cell-based; details: synthetic peptides at 2.5, 5 or 10 μg/mL; 72 hours; relative to PBS (−) group taken as 100; FIGS. 9 to 12
# Method: A mouse osteoblast-like cell line MC3T3-E1 Subclone-4 (ATCC No. CRL-2593) was cultured in α-MEM medium supplemented with 10% FBS at 5% CO2 and 95% air at 37° C. until confluent. The cells were collected by trypsinization. The collected cells were suspended at 1×10^4 cells/mL in fresh α-MEM medium. One mL of the cell suspension was seeded in each well of a 24-well plate, and precultured at 5% CO2 and 95% air at 37° C. On the next day, the medium was replaced with medium prepared by well mixing 50 μL of a sample or PBS (−) with 950 μL of fresh α-MEM medium supplemented with CaCl2 to a Ca concentration of 500 μg/mL. The cells were further cultured for 72 hours. The growth activity of osteoblasts was measured by the cell counting method. The activity of the sample for promoting the growth of osteoblasts was expressed in terms of the relative value, with the growth rate in the PBS (−) group taken as 100. Osteoblast growth-promoting activity was determined for the synthetic peptides in the same manner as in Example 1. The synthetic peptides were added at 2.5, 5 or 10 μg/mL per well. As a control, PBS (−) was added. The osteoblast growth-promoting activity was expressed in terms of the relative value, with the growth rate in the PBS (−) group taken as 100.
# [3] = tested on: mouse-derived chondrogenic cell line ATDC5; assay: Chondrocyte growth-promoting activity (Cell Counting Kit-8); assay type: cell-based; details: 10 nmol/mL; 72 hours; relative to control taken as 100%; FIG. 14
# Method: This study was performed using mouse-derived chondrogenic cell line ATDC5 (RIKEN BANK, RBC0565). ATDC5 cells in the logarithmic growth phase were suspended at 3×10^4 cells/mL in Eagle MEM medium supplemented with 5% FCS (fetal calf serum), and 100 μL of the cell suspension was seeded in each well of a 96-well plate and precultured at 5% CO2 and 95% air at 37° C. On the next day, the medium in each well was removed, and medium containing the synthetic peptide (No. 1 or No. 6) at 10 nmol/mL was added. The cells were cultured for 72 hours. As a control, medium without a synthetic peptide was added. The reaction solution ([…]) of Cell Counting Kit-8 (Dojindo Laboratories) was added to each well. The plate was incubated for 3 hours, and the absorbance at 450 nm was measured with a microplate reader. The activity of the synthetic peptides for promoting the growth of chondrocytes was expressed in terms of the relative value, with the absorbance (growth rate) in the control group taken as 100%.
# [4] = tested on: mouse-derived cell line ATDC5; assay: Hyaluronic acid production-promoting activity (ELISA of culture supernatant); assay type: cell-based; details: 10 nmol/mL; supernatant after 48 hours of culture; FIG. 15
# Method: This study was performed using the mouse-derived cell line ATDC5 as used in Example 4. ATDC5 cells in the logarithmic growth phase were seeded at 2×10^4 cells/mL per well in a 24-well plate containing DMEM/F-12 (1:1) medium supplemented with 5% FCS (fetal calf serum), 10 μg/mL transferrin and 3×10^−8 M sodium selenite. The cells were precultured at 5% CO2 and 95% air at 37° C. On the next day, the medium in each well was removed, and medium containing the synthetic peptide (No. 1 or No. 6) at 10 nmol/mL was added. The cells were cultured for […]. As a control, medium without a synthetic peptide was added. After 48 hours of culture, the culture supernatants were collected, and their hyaluronic acid concentrations were measured using QnE Hyaluronic Acid ELISA Assay (Biotech Trading Partners). The concentrations of hyaluronic acid in the culture supernatants of the synthetic peptide addition group were calculated by subtracting the absorbance of the background from the absorbance of the supernatants, and fitting the resulting values to the reference curve prepared using the standard.
# [5] = tested on: Crlj:W1 male rats at four weeks old; assay: Mineral apposition rate in secondary cancellous bone, 7-day oral administration; assay type: in vivo, rat; details: No. 1 oral 1, 10 or 100 mg/kg-day, hGH 500 μg/kg·day subcutaneous; seven days; FIG. 26
# Method: One of the synthetic peptides (No. 1) or water for injection (control) was administered to Crlj:W1 male rats at four weeks old by oral gavage using a gastric tube once a day for seven days (n=10 in each group). The dose of the synthetic peptide was 1, 10 or 100 mg/kg-day. As a positive control, human growth hormone (hGH) (Norditropin, Standard Commodity Classification No. of Japan: 872412) was subcutaneously administered at 500 μg/kg·day once a day for seven days. As fluorescent labels for the site of bone formation, tetracycline (20 mg/kg) was subcutaneously administered on day 4 after the administration of the peptide or control, and then calcein (10 mg/kg) was subcutaneously administered on day 6 after the administration of the peptide or control. After the administration of the test sample on day 7, the rats were kept under fasting conditions. Twenty-four hours later, the rats were euthanized by bloodletting under anesthesia, and the tibiae were harvested. Non-decalcified specimens of the proximal tibiae were prepared and photographed under a fluorescent microscope (BX-53, OLYMPUS). The bone morphology was measured using a morphometry system (Histometry RT digitizer, System Supply Co., Ltd.) and an analysis software (CSS-840 cancellous bone morphometry version, System Supply Co., Ltd.). The mineral apposition rate (MAR), per day, in the secondary cancellous bone was determined by measuring the distance between the tetracycline label and the calcein label in the secondary cancellous bone, and dividing the distance by the administration interval between the fluorescent labels (two days). […] The increase in the mineral apposition rate in the secondary cancellous bone in the No. 1 administration group would have resulted from the increase in the number of osteoblasts.
# [6] = tested on: Crlj:W1 male rats at four weeks old; assay: Bone formation in growth cartilage and primary cancellous bone, 7-day oral administration; assay type: in vivo, rat; details: No. 1 oral 100 mg/kg-day, hGH 500 μg/kg-day subcutaneous, seven days
# Method: One of the synthetic peptides (No. 1) or water for injection (control) was administered to Crlj:W1 male rats at four weeks old by oral gavage using a gastric tube once a day for seven days (n=3 in each group). The dose of the synthetic peptide (No. 1) was 100 mg/kg-day. As a positive control, human growth hormone (hGH) (Norditropin, Standard Commodity Classification No. of Japan: 872412) was subcutaneously administered at 500 μg/kg-day once a day for seven days. As fluorescent labels for the site of bone formation, tetracycline (20 mg/kg) was subcutaneously administered on day 4 after the administration of the peptide or control, and then calcein (10 mg/kg) was subcutaneously administered on day 6 after the administration of the peptide or control. After the administration of the test sample on day 7, the rats were kept under fasting conditions. Twenty-four hours later, the blood was collected. The rats were then euthanized by bloodletting under anesthesia, and the tibiae were harvested (see FIG. 16). Non-decalcified specimens of the proximal tibiae were prepared and photographed under a fluorescent microscope (BX-53, OLYMPUS). The bone morphology was measured using a morphometry system (Histometry RT digitizer, System Supply Co., Ltd.) and an analysis software (CSS-840 cancellous bone morphometry version, System Supply Co., Ltd.). The longitudinal growth rate (Lo.G.R.) in the growth cartilage, which is the increase in the height per day, was determined by measuring the distance between the tetracycline label and the calcein label, and dividing the distance by the administration interval between the fluorescent labels (two days).
# The increase in the level of IGF-1, which is related to growth of the bones and muscles in a growth phase, may contribute to the bone growth-promoting effect.
# [7] = tested on: Crlj:W1 male rats at four weeks old; assay: Bone formation in growth cartilage and secondary cancellous bone, 21-day oral administration; assay type: in vivo, rat; details: No. 1 oral 100 mg/kg·day, hGH 500 μg/kg·day subcutaneous; 21 days; FIG. 21
# Method: One of the synthetic peptides (No. 1) or water for injection (control) was administered to Crlj:W1 male rats at four weeks old by oral gavage using a gastric tube once a day for 21 days (n=3 in each group). The dose of the synthetic peptide was 100 mg/kg·day. As a positive control, human growth hormone (hGH) (Norditropin, Standard Commodity Classification No. of Japan: 872412) was subcutaneously administered at 500 μg/kg·day once a day for 21 days. As fluorescent labels for the site of bone formation, tetracycline (20 mg/kg) was subcutaneously administered on day 18 after the administration of the peptide or control, and then calcein (10 mg/kg) was subcutaneously administered on day 20 after the administration of the peptide or control. After the administration of the test sample on day 21, the rats were kept under fasting conditions. Twenty-four hours later, the rats were euthanized by bloodletting under anesthesia, and the tibiae were harvested (see FIG. 20). Non-decalcified specimens of the proximal tibiae were prepared and photographed under a fluorescent microscope (BX-53, OLYMPUS). The bone morphology was measured using a morphometry system (Histometry RT digitizer, System Supply Co., Ltd.) and an analysis software (CSS-840 cancellous bone morphometry version, System Supply Co., Ltd.). The longitudinal growth rate (Lo.G.R.) in the epiphyseal cartilage, which is the increase in the height per day, was determined by measuring the distance between the tetracycline label and the calcein label, and dividing the distance by the administration interval between the fluorescent labels (two days).
compound,measurement,setting,value
"NCCCC(O)(P(=O)(O)O)P(=O)(O)O [alendronate, alendronate sodium hydrate, reference compound]",cancellous bone volume in the proximal tibial metaphysis,[1],significantly increased
DESSPYE [No. 4],osteoblast growth-promoting activity,[2],promoted the growth of osteoblasts in a concentration-dependent manner
EDESSPYE [No. 5],osteoblast growth-promoting activity,[2],promoted the growth of osteoblasts in a concentration-dependent manner
Pro-Glu-Ser-Glu-Glu (PESEE) [No. 3],osteoblast growth-promoting activity,[2],promoted the growth of osteoblasts in a concentration-dependent manner
VNPESEE [No. 2],osteoblast growth-promoting activity,[2],promoted the growth of osteoblasts in a concentration-dependent manner
VNPESEEEDESSPYE [No. 6],osteoblast growth-promoting activity,[2],promoted the growth of osteoblasts in a concentration-dependent manner
same,chondrocyte growth-promoting activity,[3],showed chondrocyte growth-promoting effect
same,hyaluronic acid production-promoting activity (hyaluronic acid concentration in culture supernatant),[4],showed hyaluronic acid production-promoting effect
"hGH: human growth hormone (hGH) (Norditropin), positive control, subcutaneously administered [reference compound]","mineral apposition rate (MAR) in the secondary cancellous bone, vs control group",[5],significant increase in the mineral apposition rate
same,serum level of insulin-like growth factor (IGF-1),"[6]; ELISA, FIG. 19",higher than that in the control group
same,"longitudinal growth rate (Lo.G.R.) in the growth cartilage, vs control group",[6]; FIG. 17,significant promotion of bone growth as compared with the control group
same,"longitudinal growth rate (Lo.G.R.) in the epiphyseal cartilage, vs control group",[7],significant promotion of bone growth as compared with the control group
